Laboratory results taken from US4379917A, “6"-(Substituted)-apramycin antibiotic derivatives and intermediates and starting materials therefor” (Eli Lilly and Company, priority 1981, dated 1983).
Converted amounts (≈) assume the structure as drawn. Like-named read-outs stand apart in the source and are kept apart here.

Legend:
[1] = system: Staphylococcus aureus 3055; experiment: MIC by standard agar dilution test; type: cell-based; conditions: Staphylococcus aureus, 3055, read-out: Minimum Inhibitory Concentration
[2] = system: Pseudomonas aeruginosa Ps9; experiment: MIC by standard agar dilution test; type: cell-based; conditions: PS9, read-out: Minimum Inhibitory Concentration
[3] = system: Bordetella bronchiseptica 16; experiment: MIC by standard agar dilution test; type: cell-based; conditions: Bordetella bronchiseptica, 16, read-out: Minimum Inhibitory Concentration
[4] = system: Proteus morganii PR15; experiment: MIC by standard agar dilution test; type: cell-based; conditions: Morganella morganii, PR15, read-out: Minimum Inhibitory Concentration
[5] = system: Pseudomonas aeruginosa X48; experiment: MIC by standard agar dilution test; type: cell-based; conditions: X48, read-out: Minimum Inhibitory Concentration
[6] = system: Pseudomonas aeruginosa X239; experiment: MIC by standard agar dilution test; type: cell-based; conditions: X239, read-out: Minimum Inhibitory Concentration, Table 1
[7] = system: Erwinia amylovora; experiment: MIC by standard agar dilution test; type: cell-based; conditions: Table II, read-out: Minimum Inhibitory Concentration
From the text: (§1) The antibacterial activity of the antibiotic compounds of this invention is illustrated by the following in vitro and in vivo test data obtained with representative compounds. In Tables I and II the minimum inhibitory concentration (MIC) for representative compounds against a wide range of gram-positive and gram-negative bacteria is presented. The MIC values were obtained by the standard agar dilution test.

[8] = system: Staphylococcus aureus 3074; experiment: MIC by standard agar dilution test; type: cell-based; conditions: Table II, read-out: Minimum Inhibitory Concentration
From the text: as §1

[9] = system: Serratia marcescens SE3; experiment: MIC by standard agar dilution test; type: cell-based
[10] = system: Pseudomonas aeruginosa Ps25; experiment: MIC by standard agar dilution test; type: cell-based; conditions: PS25, read-out: Minimum Inhibitory Concentration
[11] = system: Pseudomonas aeruginosa X239; experiment: Subcutaneous therapy of Pseudomonas aeruginosa X239 infections in mice; type: in vivo; conditions: X239, sc, 2 subcutaneous doses at 1 and 5 hours post infection, dose to protect 50 percent of test animals, read-out: Effective Dose (ED50)
Protocol: Table III illustrates the effective dose (ED50, effective dose to protect 50 percent of the test animals) for representative compounds of this invention against an experimental bacterial infection in mice. | *mg/kg × 2 subcutaneous doses at 1 and 5 hours post infections The ED50 values were determined as described by W. E. Wick et al., Journal of Bacteriolocy, 81 [No. 2], 233-235 (1961).

[12] = system: Klebsiella pneumoniae KL14; experiment: MIC by standard agar dilution test; type: cell-based; conditions: KL14, Table II, agar dilution, read-out: Minimum Inhibitory Concentration
[13] = system: Pseudomonas aeruginosa SF-2; experiment: MIC by standard agar dilution test; type: cell-based; conditions: SF2, read-out: Minimum Inhibitory Concentration
[14] = system: Escherichia coli EC14; experiment: MIC by standard agar dilution test; type: cell-based; conditions: EC14, read-out: Minimum Inhibitory Concentration
[15] = system: Enterobacter aerogenes EB17; experiment: MIC by standard agar dilution test; type: cell-based; conditions: Klebsiella aerogenes, EB17; Table II; agar dilution; read-out: Minimum Inhibitory Concentration
[16] = system: Pseudomonas solanacearum X185; experiment: microbe, parasite or virus in culture; type: cell-based; conditions: Ralstonia solanacearum, X185, read-out: Minimum Inhibitory Concentration
[17] = system: Pseudomonas aeruginosa PI23; experiment: MIC by standard agar dilution test; type: cell-based; conditions: PI23, read-out: Minimum Inhibitory Concentration
[18] = system: Klebsiella pneumoniae KL2; experiment: MIC by standard agar dilution test; type: cell-based; conditions: KL2, Table 1, agar dilution, read-out: Minimum Inhibitory Concentration
[19] = system: Enterobacter cloacae EB24; experiment: MIC by standard agar dilution test; type: cell-based; conditions: EB24, Table 1, agar dilution, read-out: Minimum Inhibitory Concentration
[20] = system: Streptococcus faecalis X66; experiment: MIC by standard agar dilution test; type: cell-based; conditions: Enterococcus faecalis, X66, read-out: Minimum Inhibitory Concentration
[21] = system: Proteus morganii PR2; experiment: MIC by standard agar dilution test; type: cell-based; conditions: Morganella morganii, PR2; Table 1; agar dilution; read-out: Minimum Inhibitory Concentration
[22] = system: Proteus morganii PR1; experiment: MIC by standard agar dilution test; type: cell-based; conditions: Morganella morganii, PR1, read-out: Minimum Inhibitory Concentration
[23] = system: Salmonella typhimurium; experiment: MIC by standard agar dilution test; type: cell-based; conditions: Salmonella enterica, Table II, agar dilution, read-out: Minimum Inhibitory Concentration
[24] = system: Salmonella typhosa SA12; experiment: MIC by standard agar dilution test; type: cell-based; conditions: Salmonella enterica, read-out: Minimum Inhibitory Concentration
[25] = system: Enterobacter aerogenes EB6; experiment: MIC by standard agar dilution test; type: cell-based; conditions: Klebsiella aerogenes, EB6, read-out: Minimum Inhibitory Concentration
[26] = system: Pseudomonas aeruginosa 4276; experiment: MIC by standard agar dilution test; type: cell-based; conditions: Pseudomonas aeruginosa, 4276, read-out: Minimum Inhibitory Concentration
[27] = system: Serratia marcescens X99; experiment: MIC by standard agar dilution test; type: cell-based; conditions: X99, Table 1, agar dilution, read-out: Minimum Inhibitory Concentration
[28] = system: Pseudomonas aeruginosa X528; experiment: MIC by standard agar dilution test; type: cell-based; conditions: X528, read-out: Minimum Inhibitory Concentration
[29] = system: Pseudomonas aeruginosa Ps15; experiment: MIC by standard agar dilution test; type: cell-based; conditions: PS15, read-out: Minimum Inhibitory Concentration
[30] = system: Proteus inconstans PV25; experiment: MIC by standard agar dilution test; type: cell-based; conditions: Providencia alcalifaciens, PV25; Table 1; agar dilution; read-out: Minimum Inhibitory Concentration
[31] = system: Enterobacter cloacae EN453; experiment: MIC by standard agar dilution test; type: cell-based; conditions: EN453, Table 1, agar dilution, read-out: Minimum Inhibitory Concentration
[32] = system: Citrobacter freundii CF17; experiment: MIC by standard agar dilution test; type: cell-based; conditions: CF17, Table II, agar dilution, read-out: Minimum Inhibitory Concentration
[33] = system: Serratia marcescens SE2; experiment: MIC by standard agar dilution test; type: cell-based; conditions: SE2, Table 1, agar dilution, read-out: Minimum Inhibitory Concentration

Q: With `CN[C@@H]1[C@@H](O[C@H]2O[C@H](CN)[C@@H](N)[C@H](O)[C@H]2O)O[C@H]2C[C@@H](N)[C@@H](O[C@H]3[C@H](O)[C@@H](O)[C@H](N)C[C@@H]3N)O[C@@H]2[C@@H]1O` [Test Compound 5, 6"-Amino-6"-Deoxyapramycin] as the compound, how does the MIC [1] read?
A: 1 mg/L (≈ 1.86 µM)

Q: And the MIC [2]?
A: 128 mg/L (≈ 238 µM)

Q: What about the MIC [3] of the same compound?
A: 32 mg/L (≈ 59.4 µM)

Q: And the MIC [4]?
A: 32 mg/L (≈ 59.4 µM)

Q: And the MIC [5]?
A: 32 mg/L (≈ 59.4 µM)

Q: And the MIC [6]?
A: 32 mg/L (≈ 59.4 µM)

Q: What about the MIC [7] of the same compound?
A: 4 mg/L (≈ 7.43 µM)

Q: What about the MIC [8] of the same compound?
A: 4 mg/L (≈ 7.43 µM)

Q: And the MIC ([9]; SE3, Table 1, read-out: Minimum Inhibitory Concentration)?
A: 8 mg/L (≈ 14.9 µM)

Q: What about the MIC ([9]; SE3, read-out: Minimum Inhibitory Concentration, Table II) of the same compound?
A: 16 mg/L (≈ 29.7 µM)

Q: What about the MIC [10] of the same compound?
A: 32 mg/L (≈ 59.4 µM)

Q: What about the ED50 [11] of the same compound?
A: 15 mg/kg

Q: And the MIC [12]?
A: 8 mg/L (≈ 14.9 µM)

Q: And the MIC [13]?
A: 32 mg/L (≈ 59.4 µM)

Q: And the MIC [14]?
A: 16 mg/L (≈ 29.7 µM)

Q: And the MIC [15]?
A: 8 mg/L (≈ 14.9 µM)

Q: And the MIC [16]?
A: 4 mg/L (≈ 7.43 µM)

Q: And the MIC [17]?
A: > 128 mg/L

Q: And the MIC [18]?
A: 8 mg/L (≈ 14.9 µM)

Q: What about the MIC [19] of the same compound?
A: 8 mg/L (≈ 14.9 µM)

Q: What about the MIC [20] of the same compound?
A: 32 mg/L (≈ 59.4 µM)

Q: What about the MIC [21] of the same compound?
A: 8 mg/L (≈ 14.9 µM)

Q: What about the MIC [22] of the same compound?
A: 16 mg/L (≈ 29.7 µM)

Q: What about the MIC [23] of the same compound?
A: 8 mg/L (≈ 14.9 µM)

Q: What about the MIC [24] of the same compound?
A: 16 mg/L (≈ 29.7 µM)

Q: What about the MIC [25] of the same compound?
A: 16 mg/L (≈ 29.7 µM)

Q: And the MIC [26]?
A: 64 mg/L (≈ 119 µM)

Q: And the MIC [27]?
A: 8 mg/L (≈ 14.9 µM)

Q: What about the MIC [28] of the same compound?
A: 64 mg/L (≈ 119 µM)

Q: What about the MIC [29] of the same compound?
A: 32 mg/L (≈ 59.4 µM)

Q: And the MIC [30]?
A: 8 mg/L (≈ 14.9 µM)

Q: And the MIC [31]?
A: 8 mg/L (≈ 14.9 µM)

Q: What about the MIC [32] of the same compound?
A: 8 mg/L (≈ 14.9 µM)

Q: And the MIC [33]?
A: 8 mg/L (≈ 14.9 µM)
